Data on 18 compounds can be found in patent publication US9365588B2, “Benzoxazines as modulators of ion channels” (Vertex Pharmaceuticals Incorporated, priority 2011, dated 2016).

human NaV 1.7, sequence (Q15858 whole entry): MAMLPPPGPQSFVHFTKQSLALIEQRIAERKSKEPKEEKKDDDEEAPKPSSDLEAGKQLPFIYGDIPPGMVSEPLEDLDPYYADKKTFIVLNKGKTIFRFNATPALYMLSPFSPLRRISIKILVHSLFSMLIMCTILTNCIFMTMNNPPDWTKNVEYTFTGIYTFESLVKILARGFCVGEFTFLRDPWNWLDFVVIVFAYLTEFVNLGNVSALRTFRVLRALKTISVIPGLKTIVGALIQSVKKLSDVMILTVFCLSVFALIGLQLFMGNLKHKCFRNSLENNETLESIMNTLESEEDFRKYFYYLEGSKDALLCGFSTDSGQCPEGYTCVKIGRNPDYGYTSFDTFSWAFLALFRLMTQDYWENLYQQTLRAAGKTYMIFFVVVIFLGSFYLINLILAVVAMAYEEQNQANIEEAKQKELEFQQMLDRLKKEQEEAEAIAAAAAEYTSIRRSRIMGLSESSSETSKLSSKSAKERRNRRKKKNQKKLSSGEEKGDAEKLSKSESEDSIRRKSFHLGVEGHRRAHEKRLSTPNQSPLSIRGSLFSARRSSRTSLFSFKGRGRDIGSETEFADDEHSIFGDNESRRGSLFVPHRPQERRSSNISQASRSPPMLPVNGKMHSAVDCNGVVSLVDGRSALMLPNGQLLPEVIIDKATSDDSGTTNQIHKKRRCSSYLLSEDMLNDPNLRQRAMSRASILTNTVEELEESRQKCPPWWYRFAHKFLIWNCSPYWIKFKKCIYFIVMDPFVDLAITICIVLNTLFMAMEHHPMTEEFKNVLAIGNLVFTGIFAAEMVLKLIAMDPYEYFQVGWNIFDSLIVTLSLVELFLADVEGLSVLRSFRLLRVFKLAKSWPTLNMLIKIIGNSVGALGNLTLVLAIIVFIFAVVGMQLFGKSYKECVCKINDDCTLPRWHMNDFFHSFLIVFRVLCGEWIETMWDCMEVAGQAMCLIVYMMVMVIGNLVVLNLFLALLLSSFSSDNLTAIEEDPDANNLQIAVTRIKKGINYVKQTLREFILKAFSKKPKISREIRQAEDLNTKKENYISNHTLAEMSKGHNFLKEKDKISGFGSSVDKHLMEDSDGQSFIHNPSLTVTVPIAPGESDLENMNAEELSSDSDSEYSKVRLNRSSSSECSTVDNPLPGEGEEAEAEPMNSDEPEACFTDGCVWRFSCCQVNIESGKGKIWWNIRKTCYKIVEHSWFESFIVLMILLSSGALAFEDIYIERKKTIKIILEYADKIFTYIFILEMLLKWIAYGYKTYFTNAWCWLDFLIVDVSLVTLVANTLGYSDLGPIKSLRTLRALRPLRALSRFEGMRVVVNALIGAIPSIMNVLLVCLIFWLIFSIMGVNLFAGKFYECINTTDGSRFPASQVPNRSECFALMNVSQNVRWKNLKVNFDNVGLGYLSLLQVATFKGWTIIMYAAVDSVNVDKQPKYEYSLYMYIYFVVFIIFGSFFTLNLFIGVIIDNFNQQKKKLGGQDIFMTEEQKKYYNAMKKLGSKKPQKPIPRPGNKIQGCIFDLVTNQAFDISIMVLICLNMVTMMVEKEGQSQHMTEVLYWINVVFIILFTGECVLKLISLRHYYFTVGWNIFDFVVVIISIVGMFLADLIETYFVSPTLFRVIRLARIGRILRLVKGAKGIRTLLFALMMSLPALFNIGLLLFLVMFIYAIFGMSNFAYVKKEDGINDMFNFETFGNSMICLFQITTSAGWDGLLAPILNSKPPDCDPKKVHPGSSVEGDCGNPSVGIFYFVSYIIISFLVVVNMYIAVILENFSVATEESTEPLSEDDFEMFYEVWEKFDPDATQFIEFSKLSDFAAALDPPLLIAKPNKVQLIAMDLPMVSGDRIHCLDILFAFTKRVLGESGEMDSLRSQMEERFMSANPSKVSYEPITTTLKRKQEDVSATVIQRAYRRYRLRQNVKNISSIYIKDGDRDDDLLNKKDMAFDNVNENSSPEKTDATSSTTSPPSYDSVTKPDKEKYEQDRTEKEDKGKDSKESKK

The target of this assay is human NaV 1.7 (Homo sapiens, UniProt Q15858). The assay is described as follows: E-VIPR optical membrane potential assay with electrical stimulation. In kind it is cell-based. The conditions noted are these: sodium channel inhibition; read-out: Binned Activity Data (IC50). In outline:
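Membrane-potential read-out: background-subtracted 460 nm/580 nm ratio during a 9 s current-controlled stimulus, 400 Hz scan. Before stimulation, NaV1.7-HEK cells carried coumarin/oxonol dye and compound (final DMSO 0.625%) for 20–35 min at room temperature; tetracaine 125 μM served as positive control.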
As for `O=C(c1cccc(Cl)c1)N1CCC2(CC1)Oc1cc(Cl)ccc1-n1cccc12` [Compound 870], the IC50 is at most 2000 nM.
The result for `COc1ccc(C(=O)N2CCC3(CC2)Oc2ccccc2-n2c(C(F)(F)F)ccc23)cc1Cl` [Compound 871] reads at most 2000 nM; that for `COc1ccc(C(=O)N2CCC3(CC2)Oc2ccccc2-n2c(C(F)(F)F)ccc23)nc1C` [Compound 872], at most 2000 nM.
The result for `O=C(c1ccc(S(=O)(=O)CC2CCC2)cn1)N1CCC2(CC1)Oc1ccccc1-n1c(C(F)(F)F)ccc12` [Compound 873] reads at most 2000 nM; that for `CC(C)CS(=O)(=O)c1ccc(C(=O)N2CCC3(CC2)Oc2ccccc2-n2c(C(F)(F)F)ccc23)nc1` [Compound 874], at most 2000 nM.
As for `COc1ccc(C(=O)N2CCC3(CC2)Oc2ccccc2-n2c(C(F)(F)F)ccc23)c(F)c1` [Compound 875], the IC50 lay in the range of 2000 to 5000 nM.
The result for `Cc1cc(C(F)F)n2ncc(C(=O)N3CCC4(CC3)Oc3ccccc3-n3c(C(F)(F)F)ccc34)c2n1` [Compound 876] reads at most 2000 nM; that for `O=C(c1ccc(S(=O)(=O)CC2CCOC2)cn1)N1CCC2(CC1)Oc1ccccc1-n1c(C(F)(F)F)ccc12` (stereo not drawn) [Compound 877], at most 2000 nM; that for `O=C(c1ccc(O)c(Cl)c1)N1CCC2(CC1)Oc1ccccc1-n1c(C(F)(F)F)ccc12` [Compound 878], at most 2000 nM.
The result for `CC(C)(C)Sc1ccc(C(=O)N2CCC3(CC2)Oc2ccccc2-n2c(C(F)(F)F)ccc23)cc1` [Compound 879] reads at most 2000 nM; that for `CC(C)(C)[S@@+]([O-])c1ccc(C(=O)N2CCC3(CC2)Oc2ccccc2-n2c(C(F)(F)F)ccc23)cc1` [Compound 880], 2000 to 5000 nM; that for `CC(C)S(=O)(=O)c1ccc(C(=O)N2CCC3(CC2)Oc2ccccc2-n2c(C(F)(F)F)ccc23)nc1` [Compound 881], at most 2000 nM.
Regarding `CC(C)(C)[S+]([O-])c1ccc(C(=O)N2CCC3(CC2)Oc2ccccc2-n2c(C(F)(F)F)ccc23)cc1` (stereo not drawn) [Compound 882], the IC50 lay in the range of 2000 to 5000 nM.
The result for `CC(C)(C)[S@+]([O-])c1ccc(C(=O)N2CCC3(CC2)Oc2ccccc2-n2c(C(F)(F)F)ccc23)cc1` [Compound 883] reads 2000 to 5000 nM; that for `COc1ccc(C(=O)N2CCC3(CC2)Oc2ccccc2-n2c(C(F)(F)F)ccc23)cc1C` [Compound 884], at most 2000 nM.
The result for `O=C(c1ccccc1OC(F)F)N1CCC2(CC1)Oc1ccccc1-c1c2cnn1C(F)F` [Compound 889] reads at most 2000 nM.
The result for `COc1ccc(C(=O)N2CCC3(CC2)Oc2ccccc2-c2c3cnn2C(F)(F)F)cc1OC` [Compound 890] reads at most 2000 nM; that for `O=C(c1ccc(OS(=O)(=O)C(F)(F)F)cc1)N1CCC2(CC1)Oc1ccccc1-n1c(C(F)(F)F)ccc12` [Compound 891], at most 2000 nM.
